Key:
IRAK4 = IRAK4 (Homo sapiens (Human), UniProt Q9NWZ3); test: IRAK4 Inhibition Assay; assay type: biochemical; settings: ATP 500 μM; IRAK4 0.6 nM; 60 min at room temperature
Experimental: The assays were performed in U-bottom 384-well plates. The final assay volume was 30 μL prepared from 15 μL additions of enzyme and substrates (fluoresceinated peptide and ATP) and test compounds in assay buffer (20 mM HEPES pH 7.2, 10 mM MgCl2, 0.015% Brij 35 and 4 mM DTT). The reaction was initiated by the combination of IRAK4 with substrates and test compounds. The reaction mixture was incubated at room temperature for 60 min. and terminated by adding 45 μL of 35 mM EDTA to each sample. The reaction mixture was analyzed on the Caliper LABCHIP® 3000 (Caliper, Hopkinton, Mass.) by electrophoretic separation of the fluorescent substrate and phosphorylated product. Inhibition data were calculated by comparison to no enzyme control reactions for 100% inhibition and vehicle-only reactions for 0% inhibition. The final concentrations of reagents in the assays are ATP, 500 μM; FL-IPTSPITTTYFFFKKK peptide 1.5 μM; IRAK4, 0.6 nM; and DMSO, 1.6%.

[1] = tested on: IL-6 levels in human whole blood stimulated with a TLR2 agonist; test: IRAK4 Whole Blood Assay (TLR2 agonist lipoteichoic acid-stimulated IL-6); assay type: cell-based; settings: 10 μg/mL lipoteichoic acid, 5 hours, IL-6 readout
Experimental: Human whole blood containing the anti-coagulant ACD-A was plated in 384-well plate (25 μL/well) and incubated with compounds for 60 minutes at 37° C. in a 5% CO2 incubator. The blood was stimulated with a TLR2 agonist, 10 μg/mL final concentration of lipoteichoic acid (Invivogen, San Diego, Calif.) in 25 μL RPMI (Gibco) for 5 hours in a 5% CO2 incubator. At the end of the incubation, plates were centrifuged at 2300 rpm for 5 minutes. Supernatants were harvested and analyzed for IL-6 levels by Flow Cytometry beads assay (BD Biosciences, San Jose, Calif.).

[2] = Caco-2 Permeability Assay; assay type: in vitro ADME; settings: human, 3 μM compound, 2 hours at 37° C., direction not given
Experimental: Caco-2 Permeability Assay
Thirteen to 27 days prior to assay, Caco-2 cells were seeded onto collagen-coated polycarbonate filter membranes in 24-well transwell plates at a density of 1.45×10^5 cells/cm^2, approximately 4.8×10^4 cells per well. The cells were grown in a culture medium consisting of DMEM supplemented with 10% fetal bovine serum, 10 mM HEPES, 1% nonessential amino acids, 2 mM L-glutamine, 100 U/mL penicillin-G, and 100 μg/mL streptomycin. The culture medium was replaced every 3 days and the cells were maintained at 37° C. in a 95% relative humidity and 5% CO2 atmosphere. The cells were evaluated for tight junction formation just prior to assay. The test compound was solubilized to 10 mM in 100% DMSO and diluted to 3 μM in assay buffer. Permeability studies were initiated by adding 200 μL assay buffer plus/minus compound to the apical transwell compartment and 600 μL assay buffer plus/minus compound to the basolateral compartment of the 24-well transwell low-binding cluster plate. For apical-to-basolateral (A to B) permeability (absorptive direction), buffer containing compound was placed in the apical compartment (donorwells), while buffer alone was placed in the corresponding basolateral compartments (receiverwells). For basolateral-to-apical (B to A) permeability (secretive direction), buffer containing compound was placed in the basolateral compartment (donor wells), while buffer alone was placed in the corresponding apical compartments (receiver wells). Transwells were then incubated for 2 hours at 37° C. in a 95% relative humidity and 5% CO2 atmosphere with gentle agitation. Following incubation, 100 μL was removed from each apical and basolateral compartment and transferred to 96-well low binding plates that had been previously loaded with 100 μL/well of acetonitrile containing 250 nM propranolol, 250 nM diclofenac, and 500 nM tolbutamide as internal standards. The samples were subsequently analyzed by LC-MS/MS to determine concentrations of compound.

IRAK4, sequence (Q9NWZ3 whole entry): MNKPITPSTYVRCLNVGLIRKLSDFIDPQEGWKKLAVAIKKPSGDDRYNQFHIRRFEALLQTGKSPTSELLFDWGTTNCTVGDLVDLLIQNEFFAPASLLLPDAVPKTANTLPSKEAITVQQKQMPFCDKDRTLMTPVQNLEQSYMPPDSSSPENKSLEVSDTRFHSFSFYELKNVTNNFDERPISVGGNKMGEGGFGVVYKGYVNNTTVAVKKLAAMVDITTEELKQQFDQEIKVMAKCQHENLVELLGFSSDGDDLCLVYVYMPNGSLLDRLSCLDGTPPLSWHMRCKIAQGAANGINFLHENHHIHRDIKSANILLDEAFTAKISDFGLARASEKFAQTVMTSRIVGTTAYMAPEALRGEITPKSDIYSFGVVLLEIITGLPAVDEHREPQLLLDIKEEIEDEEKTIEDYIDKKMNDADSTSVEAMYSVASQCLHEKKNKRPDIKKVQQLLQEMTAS

IC50 (IRAK4): 13.3 nM
EC50 [1]: 736 nM
Papp at 2 h, 3 µM [2]: 5.8 ×10⁻⁶ cm/s
Structure (SMILES): COc1nc2c(OC[C@H]3NC(=O)[C@@H](F)[C@H]3C)csc2cc1C(N)=O [Example 28, 3-(((2S,3S,4S)-4-fluoro-3-methyl-5-oxopyrrolidin-2-yl)methoxy)-5-methoxythieno[3,2-b]pyridine-6-carboxamide]

Reference: patent US10829496B2, “Thienopyridines and benzothiophenes useful as IRAK4 inhibitors” (BRISTOL-MYERS SQUIBB COMPANY, priority 2017, dated 2020)
